The test system of one assay is PP13. Put plainly: Allocation of high-risk women to serum PP13 quartiles after low dose aspirin. Type of assay: in vivo, human. The note with it: for Frequency of 1st quartile cases / Frequency of 2nd quartile cases / Frequency of 3rd quartile cases: high-risk women. The protocol:
Unless otherwise indicated, in all experiments, PP13 was measured (blinded to pregnancy outcome) in maternal venous serum by solid-phase sandwich ELISA assay. The PP13 level was calibrated according to standard curves prepared from calibrated standards of recombinant PP13. Concentrations are given in pg PP13/ml serum.
First trimester PP13 could serve as a measure to assess the risk for a later development of preeclampsia. According to FIG. 2 and Table 1, in the first trimester, the majority of the women who will go on to develop preeclampsia have very low levels of PP13 while most women who will have a normal outcome have higher PP13 values. In one study summarized in Table 2 and FIG. 3, the PP13 level was measured at 8 weeks of gestation from 50 cases who went on to develop preeclampsia and in 290 cases with normal outcome. The method of multiples of the gestation-specific median (MoM) was used, and at MoM cutoffs of 0.45, the false positive rate was 10% and the sensitivity 87%. This means that 43 out of 50 preeclampsia cases and 29 out of 290 normal were identified as being at high risk. Thus, while the risk for PP13 in the population is 5%, in the group with PP13 below 0.45, the frequency of preeclampsia was 59% (more than 10 times above the frequency in the population not tested).
Sensitivity and specificity were calculated from the receiver operating characteristic (ROC) analysis based on the indicated MoM cutoffs of 0.45. Sensitivity value is provided in Table 2 in percentile for 10% false positive rate. The odds ratio for developing the pathology was determined by two methods of calculations:
1) modeling, that calculate the Odds ratio as already described above after taking into consideration the prevalence of the pathology in the population, and
2) the quartile assessment procedure, of calculating of the odds ratio for the development of preeclampsia based on the comparison of PP13 in the lowest quartile (25%) versus PP13 in the third quartile (75th percent).
(§1) If in the period specified above a medication is used, it is anticipated that it will bring a woman's PP13 level to the 2nd or 3rd or even the 4th quartile, corresponding to their reduced likelihood of developing preeclampsia. In the example described in Table 2, women with elevated risk to develop preeclampsia were orally treated from GW8 with a dose of […] aspirin (“low dose aspirin”) for either 2 or 3 weeks. […] Accordingly, women who were treated were anticipated to have lower risk to develop preeclampsia and their outcome should also be improved.
(§2) In the study shown in Table 2, of 150 women tested as being at high risk in the 8th week, 50 were not treated, 50 were treated with aspirin for two weeks and 50 were treated for 3 weeks. […] The calculation of their anticipated risk was reduced accordingly.
Sensitivity in percentile values are shown when the specificity was fixed to 90% (95% CI: 86%-93%), corresponding to having […] cases of false positives (10%).

Assay [1] relates to women with elevated risk to develop preeclampsia. The assay can be described thus: Delivery outcome of high-risk women treated with low dose aspirin. Type of assay: in vivo, human. The note with it: for Outcome: Normal (number of women) / Outcome: Preeclampsia (number of women): 50 treated. How it is done:
as §1, §2

Assay [2] relates to PP13 release from placenta explants. The assay can be described thus: Therapeutic effectiveness on PP13 release from standardized placenta explants in presence of patient serum (indirect method). Type of assay: cell-based, human. An excerpt:
Scenario 1: Simple Direct Tailoring with a Diversity of Drugs. • We have standardized culture conditions for first trimester explants or explants obtained after delivery. • Explants could be the ones made of patients after delivery or those obtained by Chorionic villi sampling (CVS) at gestational weeks 10-12 or other placenta biopsies as the case may be. • Standardization means defined median viability index, protein content in the explant, total protein released to the medium, PP13 content in the explant and PP13 release from the explant, among others. • Drug effect in-vitro is the effect of drug applied to the culture medium on PP13 release from the placenta explant after 24 hr to 7 days. The effect is compared to the baseline release as measured without the drug. • The Therapeutic Index is thus the in-vitro relative effectiveness of the drug when applied to explants as measured by the difference between PP13 release with (PP13D1) and without (PP130) the drug by the equation: (PP130−PP13D1)/PP130, after normalizing to viability, protein content etc as described above, given all other parameters are the same. • It is important to note that in the first trimester (gestational weeks 6-13) PP13 in diseased patient is lower than Normal. Thus the therapeutic index is to return PP13 release is calculated as drugs that elevate PP13 release. In the third trimester (gestational week 26 and above), PP13 is higher in preeclamptic patients than normal. Thus the therapeutic index is decreasing PP13 release back to Normal. • According to the in-vitro therapeutic index one drug or a drug combinations are selected for the in-vivo interventional medication treatment. • Follow up: after selecting the drug to be administrating to the patient, bi-weekly blood testing follow up is recommended to be carried out by measuring the PP13 in the blood and calculating
If so, drugs that appears beneficial to standardized culture explants wouldn't work when applied together with the patient samples. It can be seen that the serum from the patient at high risk for preeclampsia caused serious inhibition of many of the types of treatment.

The text below walks through data of patent publication US20080131867A1, “Method for Determining the Effectiveness of a Treatment for Preeclampsia” (priority 2006, published 2008).

SMILES strings stand for the structures.

For `CC(=O)Oc1ccccc1C(=O)O` [Aspirin, salicylic acid (aspirin)], in the assay with PP13 (14 days aspirin), the “Odds ratio (by modeling) for developing preeclampsia” value came to 5.9, the “Odds ratio (by quartiles) for developing preeclampsia” value amounted to 5.6, the “Frequency of 1st quartile cases” value is 20/50 and the “Frequency of 2nd quartile cases” value is on record as 24/45. Moreover, the “Frequency of 3rd quartile cases” value in the assay with PP13 (14 days aspirin) was 5/50. For the same compound, in the assay with PP13 (21 days aspirin), the “Odds ratio (by modeling) for developing preeclampsia” value is 3.3, the “Odds ratio (by quartiles) for developing preeclampsia” value was determined as 3.2, the “Frequency of 1st quartile cases” value was 14/50 and the “Frequency of 2nd quartile cases” value is listed as 30/50. Moreover, the “Frequency of 3rd quartile cases” value in the assay with PP13 (21 days aspirin) was 5/50. Further, the “Numbers of patients in the 2nd and 3rd PP13 quartiles compared to the first quartile” value in the assay with PP13 (aspirin for 2 or 3 weeks) is “elevated significantly”. Besides, in assay [1] (14 days aspirin), the “Outcome: Normal (number of women)” value is recorded as 26 Normal and the “Outcome: Preeclampsia (number of women)” value is on record as 24 Preeclampsia. Further, in assay [1] (21 days aspirin), the “Outcome: Normal (number of women)” value is given as 33 Normal and the “Outcome: Preeclampsia (number of women)” value is reported as 18 Preeclampsia. Moreover, in assay [1] (aspirin for 2 or 3 weeks), the “Number of preeclampsia cases, treated vs. untreated groups” value is listed as “significantly lower”. The “Therapeutic Effectiveness on PP13 release from placenta explants” value in assay [2] (applied with serum from a Normal Patient) stood at 74%. In assay [2] (applied with serum from a Patient at high risk for preeclampsia), the “Therapeutic Effectiveness on PP13 release from placenta explants” value is given as 40%.
